The source of these data is ChEMBL document CHEMBL1135846, “In vivo active antimalarial isonitriles” (Bioorg Med Chem Lett, 2002).

One data set deals with Plasmodium falciparum. The data set is described as follows: In vitro antimalarial activity for Plasmodium falciparum NF54. Format: functional.
In data set [1] the test system is Mus musculus. The data set is described as follows: Antimalarial activity of compound against multidrug-resistant strain of Plasmodium yoelii in Swiss mice (Mus musculus) at a dose of 100 mg/kg/day (percent suppression on day 4). Format: functional.
In data set [2] the test system is Mus musculus. Nature of the data set: Antimalarial activity of compound against multidrug-resistant strain of Plasmodium yoelii in 5 Swiss mice (Mus musculus) treated at a dose of 50 mg/kg/day. Format: functional.
Data set [3] concerns Mus musculus. The data set is described as follows: Antimalarial activity of compound against multidrug-resistant strain of Plasmodium yoelii in 5 Swiss mice (Mus musculus) treated at a dose of 100 mg/kg/day. Format: functional.
Data set [4] has as its system Mus musculus. The data set is described as follows: Antimalarial activity of compound against multidrug-resistant strain of Plasmodium yoelii in Swiss mice (Mus musculus) at a dose of 50 mg/kg/day (percent suppression on day 4). Type of data set: functional.
The subject of data set [5] is Mus musculus. Nature of the data set: Antimalarial activity of compound against multidrug-resistant strain of Plasmodium yoelii in 5 Swiss mice (Mus musculus) at a dose of 50 mg/kg/day. Format: functional.
Data set [6] concerns Mus musculus. Nature of the data set: Antimalarial activity of compound against multidrug-resistant strain of Plasmodium yoelii in Swiss mice (Mus musculus) at a dose of 50 mg/kg/day (percent suppression on day 4-nil). Type of data set: functional, organism-based.
The subject of data set [7] is Mus musculus. The data set is described as follows: Antimalarial activity of compound against multidrug-resistant strain of Plasmodium yoelii in 5 Swiss mice (Mus musculus) at a dose of 100 mg/kg/day. Type of data set: functional.
Data set [8] relates to Mus musculus. Nature of the data set: Antimalarial activity of compound against multidrug-resistant strain of Plasmodium yoelii in Swiss mice (Mus musculus) at a dose of 12.5 mg/kg/day (percent suppression on day 4). Format: functional.
The subject of data set [9] is Mus musculus. The data set is described as follows: Mean survival time of animals was calculated after administering a dose of 50 mg/kg/day during 28-day observation period. Format: functional.
The test system of data set [10] is Mus musculus. The data set is described as follows: Number of mice alive on day 28 treated with a dose of 6.25 mg/kg/day. Type of data set: functional.
For data set [11], the system named is Mus musculus. The data set is described as follows: Antimalarial activity of compound against multidrug-resistant strain of Plasmodium yoelii in 5 Swiss mice (Mus musculus) treated at a dose of 6.25 mg/Kg/day. Type of data set: functional.
Data set [12] deals with Mus musculus. Nature of the data set: Number of mice alive on day 28 treated with a dose of 50 mg/kg/day. Format: functional.
Data set [13] is described as follows: Antimalarial activity of compound against multidrug-resistant strain of Plasmodium yoelii in Swiss mice (Mus musculus) at a dose of 100 mg/kg/day (percent suppression on day 4); toxic. Format: organism-based. The conditions noted are these: in vivo.
The test system of data set [14] is Mus musculus. The data set is described as follows: Number of mice alive on day 28 treated with a dose of 12.5 mg/kg/day. Format: functional.
Data set [15] relates to Mus musculus. Nature of the data set: Number of mice alive on day 28 treated with a dose of 25 mg/kg/day. Type of data set: functional.
For data set [16], the system named is Mus musculus. Nature of the data set: Antimalarial activity of compound against multidrug-resistant strain of Plasmodium yoelii in Swiss mice (Mus musculus) at a dose of 25 mg/kg/day (percent suppression on day 4). Format: functional.
Data set [17] concerns Mus musculus. Nature of the data set: In vivo antimalarial activity of compound against multidrug-resistant strain of Plasmodium yoelii in 5 Swiss mice (Mus musculus) treated at a dose of 25 mg/kg/day. Format: functional.
Data set [18] relates to Mus musculus. Nature of the data set: Antimalarial activity of compound against multidrug-resistant strain of Plasmodium yoelii in 5 Swiss mice (Mus musculus) treated at a dose of 12.5 mg/Kg/day. Type of data set: functional.
For data set [19], the system named is Mus musculus. Nature of the data set: Mean survival time of animals was calculated after administering a dose of 25 mg/kg/day during 28-day observation period. Format: functional.
Data set [20] relates to Mus musculus. The data set is described as follows: Mean survival time of animals was calculated after administering a dose of 12.5 mg/kg/day during 28-day observation period. Format: functional.
Data set [21] deals with Mus musculus. Nature of the data set: Mean survival time of animals was calculated after administering a dose of 6.25 mg/Kg/day during 28-day observation period. Type of data set: functional.
Data set [22] has as its system Mus musculus. Nature of the data set: Antimalarial activity of compound against multidrug-resistant strain of Plasmodium yoelii in Swiss mice (Mus musculus) at a dose of 6.25 mg/kg/day (percent suppression on day 4). Format: functional.

≈ marks a conversion by molar mass, not a printed value.

A word on the MIC: it is the smallest concentration in the dilution series that meets the test's criterion for growth inhibition. The low end stands for a more susceptible organism, the high end for a less susceptible organism. On to `[C-]#[N+]c1ccc2ccccc2c1`, for which, in the data set on Plasmodium falciparum, the lowest concentration to inhibit growth (MIC) was 50 µg/mL (≈ 326 µM).

Turning to `[C-]#[N+]c1ccc(-c2ccccc2)cc1`, the lowest concentration to inhibit growth against Plasmodium falciparum (MIC) was 1 µg/mL (≈ 5.58 µM). For the same compound, the figures for the Supression in the data set on Mus musculus [1] and with Mus musculus [4] were 62.79% and 32.98%, respectively. Besides, the “No. of mice cured” value in the data set on Mus musculus [2] and with Mus musculus [3] was 0 each time.

`[C-]#[N+]C1C[C@H](C)CC[C@H]1C(C)C` (some centres not stated) had a minimum inhibitory concentration (MIC) in the data set on Plasmodium falciparum of 50 µg/mL (≈ 303 µM).

Take `[C-]#[N+]c1cccc2ccccc12`: the minimal inhibitory concentration (MIC) in the data set with Plasmodium falciparum was 50 µg/mL (≈ 326 µM).

For `[C-]#[N+]c1ccc(C(C)=O)cc1`, the “No. of mice cured” value in the data set with Mus musculus [5] and in the data set with Mus musculus [7] was 0 each time. Moreover, the minimal inhibitory concentration (MIC) against Plasmodium falciparum amounted to 2 µg/mL (≈ 13.8 µM). In addition, the Supression in the data set on Mus musculus [1] was 35.72%; in the data set on Mus musculus [6] it was “Nil”.

Regarding `CCN(CC)CCCC(C)Nc1ccnc2cc(Cl)ccc12` (configuration not stated) [CHLOROQUINE], the MIC in the data set with Plasmodium falciparum was 0.04 µg/mL (≈ 0.125 µM).

Turning to `[C-]#[N+][C@H]1CC[C@@]2(C)[C@@H](CC[C@@H]3[C@@H]2CC[C@]2(C)[C@@H]([C@H](C)CCCC(C)C)CC[C@@H]32)C1`, the minimum inhibitory concentration (MIC) in the data set on Plasmodium falciparum is over 50 µg/mL.

With `[C-]#[N+]c1ccc2c(c1)Cc1ccccc1-2`, in the data set on Plasmodium falciparum, the MIC amounted to 2 µg/mL (≈ 10.5 µM). For the same compound, the Supression in the data set with Mus musculus [1] is listed as 21.35%; in the data set on Mus musculus [4], 6.34%. For the same compound, the “No. of mice cured” value in the data set on Mus musculus [2] and in the data set on Mus musculus [3] was 0 throughout.

For the compound `[C-]#[N+]C12CC3CC(CC(C3)C1)C2`, the Supression in the data set on Mus musculus [8] is 73%; in [13], “Toxic”; with Mus musculus [16] it was 99.8%; in the data set on Mus musculus [4], 100%; in the data set on Mus musculus [22], 19%. In addition, the MST in the data set with Mus musculus [9] is 16.3; in the data set with Mus musculus [19], 12.8; with Mus musculus [20], 11.8; with Mus musculus [21], 8.2. The Survival in the data set with Mus musculus [10] was found to be 0; in the data set with Mus musculus [12] it was 2; with Mus musculus [14] it was 0; in the data set on Mus musculus [15] it was 1. In addition, the “No. of mice cured” value in the data set on Mus musculus [11] was 0; in the data set with Mus musculus [17] it was 0; with Mus musculus [18] it was 0; in the data set on Mus musculus [2] it was 2; with Mus musculus [3] it was 0. In the data set with Plasmodium falciparum, this compound returned an MIC of 0.4 µg/mL (≈ 2.48 µM).

For the compound `[C-]#[N+]c1ccc(Br)cc1Br`, in the data set with Plasmodium falciparum, the minimum inhibitory concentration (MIC) turned out to be 50 µg/mL (≈ 192 µM).

`[C-]#[N+]C1CC[C@@]2(C)[C@@H](CC[C@@H]3[C@@H]2CC[C@]2(C)[C@@H]([C@H](C)CCCC(C)C)CC[C@@H]32)C1` (some centres not stated) yielded an MIC against Plasmodium falciparum of over 50 µg/mL.

`C[C@@H]1CC[C@H]2[C@@H](C)C(=O)O[C@@H]3O[C@@]4(C)CC[C@@H]1[C@]32OO4` [ARTEMISININ] had a minimum inhibitory concentration (MIC) in the data set on Plasmodium falciparum of 0.03 µg/mL (≈ 0.106 µM).
